Assay results published in publication PMC2873968, “Novel protein kinase D inhibitors cause potent arrest in prostate cancer cell growth and motility” (BMC Chemical Biology, 2010).

Columns and labels:
PKD1 = target: T1, PKD1 (Homo sapiens, UniProt Q15139); test: Inhibition of PMA-induced endogenous PKD1 activation in LNCaP cells (Western blot); assay type: cell-based; parameters: endogenous in cells; host or cells: LNCaP; conditions: 45 min pretreatment, 100 nM PMA 20 min, densitometry of Western blots, mean ± S.E.M., read-out: Cellular IC50, inhibition of PKD1 autophosphorylation at S916
T1 sequence (Q15139 1-912): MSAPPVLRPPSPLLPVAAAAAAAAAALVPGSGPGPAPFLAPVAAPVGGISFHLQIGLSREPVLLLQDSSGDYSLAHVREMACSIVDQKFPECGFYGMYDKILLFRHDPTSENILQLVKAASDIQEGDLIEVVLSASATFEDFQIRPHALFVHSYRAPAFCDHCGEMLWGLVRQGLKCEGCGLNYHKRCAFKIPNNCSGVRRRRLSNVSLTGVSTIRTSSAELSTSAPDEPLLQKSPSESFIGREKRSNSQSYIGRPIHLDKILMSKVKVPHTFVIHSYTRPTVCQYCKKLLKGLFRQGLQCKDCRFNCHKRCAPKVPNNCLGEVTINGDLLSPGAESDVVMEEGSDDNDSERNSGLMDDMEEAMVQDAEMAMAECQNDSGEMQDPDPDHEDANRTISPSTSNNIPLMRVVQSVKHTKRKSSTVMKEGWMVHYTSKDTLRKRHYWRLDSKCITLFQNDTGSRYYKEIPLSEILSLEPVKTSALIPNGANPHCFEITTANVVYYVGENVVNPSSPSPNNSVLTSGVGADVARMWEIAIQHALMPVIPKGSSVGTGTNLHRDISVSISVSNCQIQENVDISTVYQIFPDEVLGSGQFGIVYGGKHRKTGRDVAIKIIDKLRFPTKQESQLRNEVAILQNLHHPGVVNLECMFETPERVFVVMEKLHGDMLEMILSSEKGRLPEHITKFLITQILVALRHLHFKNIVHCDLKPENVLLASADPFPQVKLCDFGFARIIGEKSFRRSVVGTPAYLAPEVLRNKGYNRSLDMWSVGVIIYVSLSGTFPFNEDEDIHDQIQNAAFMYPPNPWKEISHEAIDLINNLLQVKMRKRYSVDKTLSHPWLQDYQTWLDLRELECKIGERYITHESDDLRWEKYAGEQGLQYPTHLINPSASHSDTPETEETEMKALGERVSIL
Experimental: LNCaP cells were maintained as described previously. Western blot analysis was carried out as previously reported. Briefly, cells were lysed in lysis buffer containing 200 mM Tris-HCl, pH 7.4, 100 μM 4-(2-aminoethyl) benzenesulfonyl fluoride, 1 mM EGTA, and 1% Triton X-100. Protein concentration was determined using the BCA Protein Concentration Assay reagent kit (Pierce) and then equal amounts of protein were subjected to SDS-PAGE followed by electrotransfer to nitrocellulose membranes. Membranes were blocked with 5% nonfat milk in Tris-buffered saline and then probed with primary antibodies for either p-S916-PKD1 (Millipore), p-S742-PKCμ/PKD (Biosource), or GAPDH, followed by anti-mouse or anti-rabbit secondary antibodies conjugated to horseradish peroxidase (Bio-Rad). The enhanced chemiluminescence (ECL) Western blotting detection system (Amersham Biosciences) was used to facilitate detection of protein bands.
LNCaP cells were pretreated with indicated concentrations of the five analogs for 45 min, then stimulated with 100 nM PMA for 20 min. Cell lysates were immunoblotted for p-S916-PKD1 and p-S742-PKD1. GAPDH was blotted as a loading control. The experiment was repeated at least three times and representative blots are shown.

PKD2 = target: T2, PKD2 (Homo sapiens, UniProt Q9BZL6); test: In vitro radiometric PKD kinase assay; assay type: biochemical; parameters: purchased SignalChem; conditions: for IC50: radiometric kinase assay, mean ± S.E.M.
T2 sequence (Q9BZL6 1-878): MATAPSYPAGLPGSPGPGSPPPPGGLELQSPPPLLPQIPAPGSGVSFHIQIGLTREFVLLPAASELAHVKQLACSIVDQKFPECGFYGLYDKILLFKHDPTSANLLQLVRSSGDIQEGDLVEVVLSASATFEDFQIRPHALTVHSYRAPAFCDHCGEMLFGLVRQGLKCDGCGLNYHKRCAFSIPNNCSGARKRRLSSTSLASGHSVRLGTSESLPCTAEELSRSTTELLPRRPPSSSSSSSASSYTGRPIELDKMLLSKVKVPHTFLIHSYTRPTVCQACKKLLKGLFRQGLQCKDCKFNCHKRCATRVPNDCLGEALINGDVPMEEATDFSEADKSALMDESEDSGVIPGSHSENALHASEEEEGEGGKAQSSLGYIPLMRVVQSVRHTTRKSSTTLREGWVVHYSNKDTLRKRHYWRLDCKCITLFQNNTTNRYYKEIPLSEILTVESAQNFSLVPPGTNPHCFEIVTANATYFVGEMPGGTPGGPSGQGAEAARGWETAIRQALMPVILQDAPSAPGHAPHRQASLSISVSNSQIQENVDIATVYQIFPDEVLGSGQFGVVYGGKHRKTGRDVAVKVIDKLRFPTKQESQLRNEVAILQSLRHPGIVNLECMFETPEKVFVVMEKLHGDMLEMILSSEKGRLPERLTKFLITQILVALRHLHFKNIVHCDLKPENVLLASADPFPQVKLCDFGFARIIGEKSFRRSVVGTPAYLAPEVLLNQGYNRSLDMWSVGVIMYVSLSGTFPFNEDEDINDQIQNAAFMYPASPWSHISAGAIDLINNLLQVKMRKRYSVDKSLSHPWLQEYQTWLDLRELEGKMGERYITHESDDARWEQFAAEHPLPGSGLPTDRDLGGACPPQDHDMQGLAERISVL
Experimental: In vitro radiometric kinase assays were conducted as previously described. Briefly, 1 μCi [γ-^32P] ATP (PerkinElmer Life Sciences), 70 μM ATP, 50 ng purified recombinant human PKD1 (Biomol International, Plymouth Meeting, PA), PKD2 (SignalChem, Richmond, BC, Canada), or CAMKIIα (Enzo Life Sciences) or 75 ng PKD3 (Enzo Life Sciences), and 2.5 μg syntide-2 (Sigma) in 50 μl kinase buffer containing 50 mM Tris-HCl, pH 7.5, 4 mM MgCl2, and 10 mM β-mercaptoethanol. For the CAMK assay, 0.5 mM CaCl2 and 30 ng/μl calmodulin were pre-incubated for 10 min on ice, and then added to each reaction mixture. The reaction was incubated at 30°C for 10 min, and 25 μl of the reaction mixture was then spotted onto Whatman P81 filter paper (Whatman Inc., Clifton, NJ). The filter papers were washed 3 times in 0.5% phosphoric acid, air-dried, and counted using a Beckman LS6500 multipurpose scintillation counter (Beckman).
The in vitro inhibitory activities of the novel compounds toward PKD were determined using radiometric PKD kinase activity assays. Recombinant human PKD1, -2, or -3 was incubated with the substrate, syntide-2, in the presence of 10 different concentrations of each compound. IC50 values were determined for each compound by plotting percent PKD activity versus compound concentration for each point.

With `O=C1NCCCSc2c1sc1ccc(O)cc21` [kb-NB165-92] the IC50 (PKD1) was 2.6 ± 0.7 µM, the IC50 (PKD2) was 101 ± 10.9 nM and the “fold reduction of potency for PKD2” value (PKD2; versus kb-NB142-70) was 2-4 fold.
For `O=C1NCCSc2c1sc1ccc(O)cc21` [kb-NB142-70], the IC50 (PKD1) was 2.2 ± 0.6 µM, the “fold stronger inhibition of PKD2 than CID755673” value (PKD2) was “about 4 fold” and the IC50 (PKD2) was 58.7 ± 4.2 nM.
Compound `COc1ccc2sc3c(c2c1)SCCNC3=O` [kb-NB165-09] has an IC50 (PKD1) of 3.1 ± 0.5 µM and an IC50 (PKD2) of 142 ± 7.4 nM.
For `COc1ccc2sc3c(c2c1)SCCCNC3=O` [kb-NB184-02], the IC50 (PKD1) was 18.6 ± 2 µM and the IC50 (PKD2) was 463 ± 38.2 nM.
In the case of `O=C1NCCSc2c1sc1ccc(O)c(I)c21` [kb-NB165-31], the IC50 (PKD1) is reported as 8.6 ± 2 µM and the IC50 (PKD2) is reported as 163 ± 20.5 nM.
